Each structure is given as a SMILES string. Where a name gives a salt, the structure may show the parent alone.

Take `CN1CCN(c2ccc(CNC(=O)Nc3nc4ccc(OS(=O)(=O)c5c(Cl)cccc5Cl)cc4s3)cc2)CC1` (as salt: benzene-sulfonate) [Example 52, 2-({[4-(4-methylpiperazin-1-yl)benzyl]carbamoyl}amino)-1,3-benzothiazol-6-yl 2,6-dichlorobenzene-sulfonate]: the melting point (commonly the temperature of the solid-liquid transition) was 88 °C.

Take `COCCNC(=O)Nc1nc2cc(OS(=O)(=O)c3c(Cl)cccc3Cl)ccc2[nH]1` (as salt: benzenesulfonate) [Example 1, 2-{[(2-methoxyethyl)carbamoyl]amino}-1H-benzimidazol-5-yl 2,6-dichlorobenzenesulfonate]: the melting point came to 171 °C.

`COCCNC(=O)Nc1nc2cc(OS(=O)(=O)c3c(C)cccc3Cl)ccc2[nH]1` (as salt: benzenesulfonate) [Example 2, 2-{[(2-Methoxyethyl)carbamoyl]amino}-1H-benzimidazol-5-yl 2-chloro-6-methylbenzenesulfonate] came in with a melting point of 138 °C.

For `COCCNC(=O)Nc1nc2cc(OS(=O)(=O)c3c(C)cc(C)cc3C)ccc2[nH]1` (as salt: benzenesulfonate) [Example 3, 2-{[(2-Methoxyethyl)carbamoyl]amino}-1H-benzimidazol-5-yl 2,4,6-trimethylbenzenesulfonate], the melting point was determined as 140 °C.

On to `O=C(NCCN1CCOCC1)Nc1nc2cc(OS(=O)(=O)c3c(Cl)cccc3Cl)ccc2[nH]1` (as salt: benzenesulfonate) [Example 5, 2-{[(2-Morpholin-4-ylethyl)carbamoyl]amino}-1H-benzimidazol-5-yl 2,6-dichlorobenzenesulfonate], for which the melting point amounted to 149 °C.

Take `O=C(NCCN1CCOCC1)Nc1nc2cc(OS(=O)(=O)c3c(F)cccc3F)ccc2[nH]1` (as salt: benzenesulfonate) [Example 9, 2-{[(2-Morpholin-4-ylethyl)carbamoyl]amino}-1H-benzimidazol-5-yl 2,6-difluorobenzenesulfonate]: the melting point is 190 to 192 °C.

The molecule `O=C(Nc1nc2cc(OS(=O)(=O)c3c(Cl)cccc3Cl)ccc2[nH]1)NC1CC1` (as salt: benzenesulfonate) [Example 12, 2-[(Cyclopropylcarbamoyl)amino]-1H-benzimidazol-5-yl 2,6-dichlorobenzenesulfonate] yielded a melting point of 160 to 165 °C.

`O=C(NCc1ccccn1)Nc1nc2cc(OS(=O)(=O)c3c(Cl)cccc3Cl)ccc2[nH]1` (as salt: benzenesulfonate) [Example 15, 2-{[(Pyridin-2-ylmethyl)carbamoyl]amino}-1H-benzimidazol-5-yl 2,6-dichlorobenzenesulfonate] returned a melting point of 204 °C.

Molecule `O=C(NCc1cccnc1)Nc1nc2cc(OS(=O)(=O)c3c(Cl)cccc3Cl)ccc2[nH]1` (as salt: benzenesulfonate) [Example 16, 2-{[(Pyridin-3-ylmethyl)carbamoyl]amino}-1H-benzimidazol-5-yl 2,6-dichlorobenzenesulfonate] came in with a melting point of 210 °C.

Take `O=C(NCc1ccncc1)Nc1nc2cc(OS(=O)(=O)c3c(Cl)cccc3Cl)ccc2[nH]1` (as salt: benzenesulfonate) [Example 17, 2-{[(Pyridin-4-ylmethyl)carbamoyl]amino}-1H-benzimidazol-5-yl 2,6-dichlorobenzenesulfonate]: the melting point is 165 to 170 °C.

In turn, `O=C(NCc1ccccc1)Nc1nc2cc(OS(=O)(=O)c3c(Cl)cccc3Cl)ccc2[nH]1` (as salt: benzenesulfonate) [Example 18, 2-[(Benzylcarbamoyl)amino]-1H-benzimidazol-5-yl 2,6-dichlorobenzenesulfonate] came in with a melting point of 195 °C.

`O=C(NCCc1cccnc1)Nc1nc2cc(OS(=O)(=O)c3c(Cl)cccc3Cl)ccc2[nH]1` (as salt: benzenesulfonate) [Example 19, 2-{[(2-Pyridin-3-ylethyl)carbamoyl]amino}-1H-benzimidazol-5-yl 2,6-dichlorobenzenesulfonate]: the melting point is 131 °C.

For the molecule `CN1CCN(CCNC(=O)Nc2nc3cc(OS(=O)(=O)c4c(Cl)cccc4Cl)ccc3[nH]2)CC1` (as salt: benzenesulfonate) [Example 20, 2-({[2-(4-Methylpiperazin-1-yl)ethyl]carbamoyl}amino)-1H-benzimidazol-5-yl 2,6-dichlorobenzenesulfonate], the melting point came to 180 °C.

Turning to `O=C(NCCN1CCNCC1)Nc1nc2cc(OS(=O)(=O)c3c(Cl)cccc3Cl)ccc2[nH]1` (as salt: benzenesulfonate) [Example 21, 2-{[(2-piperazin-1-ylethyl)carbamoyl]amino}-1H-benzimidazol-5-yl 2,6-dichlorobenzenesulfonate], the melting point lay in the range of 145 to 150 °C.

On to `O=C(NCCC1CCNCC1)Nc1nc2cc(OS(=O)(=O)c3c(Cl)cccc3Cl)ccc2[nH]1` (as salt: benzenesulfonate) [Example 22, 2-{[(2-Piperidin-4-ylethyl)carbamoyl]amino}-1H-benzimidazol-5-yl 2,6-dichlorobenzenesulfonate], for which the melting point came out at 165 °C.

As to `CC(C)(C)OC(=O)Nc1nc2cc(OS(=O)(=O)c3c(Cl)cccc3Cl)ccc2[nH]1` (as salt: benzenesulfonate) [Example 23, 2-[(tert-Butoxycarbonyl)amino]-1H-benzimidazol-5-yl 2,6-dichlorobenzenesulfonate], the melting point was 205 °C.

`O=C(Nc1nc2cc(OS(=O)(=O)c3c(Cl)cccc3Cl)ccc2[nH]1)C1CC1` (as salt: benzenesulfonate) [Example 24, 2-[(Cyclopropylcarbonyl)amino]-1H-benzimidazol-5-yl 2,6-dichlorobenzenesulfonate] registered a melting point of 242 °C.

The molecule `O=C(CCc1cccnc1)Nc1nc2cc(OS(=O)(=O)c3c(Cl)cccc3Cl)ccc2[nH]1` (as salt: benzenesulfonate) [Example 25, 2-[(3-Pyridin-3-ylpropanoyl)amino]-1H-benzimidazol-5-yl 2,6-dichlorobenzenesulfonate] returned a melting point of 188 °C.

`O=C(CCC1CCN(C(=O)c2ccccc2)CC1)Nc1nc2cc(OS(=O)(=O)c3c(Cl)cccc3Cl)ccc2[nH]1` (as salt: benzenesulfonate) [Example 26, 2-{[3-(1-Benzoylpiperidin-4-yl)propanoyl]amino}-1H-benzimidazol-5-yl 2,6-dichlorobenzenesulfonate] yielded a melting point of 135 °C.

Regarding `O=C(CCC1CCNCC1)Nc1nc2cc(OS(=O)(=O)c3c(Cl)cccc3Cl)ccc2[nH]1` (as salt: benzenesulfonate) [Example 27, 2-[(3-Piperidin-4-ylpropanoyl)amino]-1H-benzimidazol-5-yl 2,6-dichlorobenzenesulfonate], the melting point stood at 135 °C.

Consider `O=C(Nc1nc2cc(OS(=O)(=O)c3c(F)cccc3F)ccc2[nH]1)C1CC1` (as salt: benzenesulfonate) [Example 29, 2-[(Cyclopropylcarbonyl)amino]-1H-benzimidazol-5-yl 2,6-difluorobenzenesulfonate], for which the melting point stood at 174 °C.

Turning to `O=C(NCc1ccccn1)Nc1nc2ccc(OS(=O)(=O)c3c(Cl)cccc3Cl)cc2s1` (as salt: benzenesulfonate) [Example 30, 2-{[(Pyridin-2-ylmethyl)carbamoyl]amino}-1,3-benzothiazol-6-yl 2,6-dichlorobenzenesulfonate], the melting point was found to be 118 °C.

`O=C(Nc1nc2ccc(OS(=O)(=O)c3c(Cl)cccc3Cl)cc2s1)NC1CC1` (as salt: benzenesulfonate) [Example 31, 2-[(Cyclopropylcarbamoyl)amino]-1,3-benzothiazol-6-yl 2,6-dichlorobenzenesulfonate]: the melting point was determined as 128 °C.

On to `O=C(NCCC1CCN(Cc2ccccc2)CC1)Nc1nc2ccc(OS(=O)(=O)c3c(Cl)cccc3Cl)cc2s1` (as salt: benzenesulfonate) [Example 33, 2-({[2-(1-Benzylpiperidin-4-yl)ethyl]carbamoyl}amino)-1,3-benzothiazol-6-yl 2,6-dichlorobenzenesulfonate], for which the melting point was determined as 105 °C.

`O=C(NCCN1CCN(Cc2ccccc2)CC1)Nc1nc2ccc(OS(=O)(=O)c3c(Cl)cccc3Cl)cc2s1` (as salt: benzenesulfonate) [Example 34, 2-({[2-(4-Benzylpiperazin-1-yl)ethyl]carbamoyl}amino)-1,3-benzothiazol-6-yl 2,6-dichlorobenzenesulfonate] returned a melting point of 102 °C.

`O=C(NCCN1CCNCC1)Nc1nc2ccc(OS(=O)(=O)c3c(Cl)cccc3Cl)cc2s1` (as salt: benzenesulfonate) [Example 36, 2-{[(2-piperazin-1-ylethyl)carbamoyl]amino}-1,3-benzothiazol-6-yl 2,6-dichlorobenzenesulfonate] returned a melting point of 158 °C.

`O=C(NCCN1CCOCC1)Nc1nc2ccc(OS(=O)(=O)c3ccccc3Cl)cc2s1` (as salt: benzenesulfonate) [Example 40, 2-{[(2-Morpholin-4-ylethyl)carbamoyl]amino}-1,3-benzothiazol-6-yl 2-chlorobenzenesulfonate] came in with a melting point of 100 °C.

For the molecule `O=C(Nc1nc2ccc(OS(=O)(=O)c3c(F)cccc3F)cc2s1)C1CC1` (as salt: benzenesulfonate) [Example 41, 2-[(Cyclopropylcarbonyl)amino]-1,3-benzothiazol-6-yl 2,6-difluorobenzenesulfonate], the melting point worked out at 145 °C.

Consider `O=C(CCc1cccnc1)Nc1nc2ccc(OS(=O)(=O)c3c(Cl)cccc3Cl)cc2s1` (as salt: benzenesulfonate) [Example 43, 2-[(3-Pyridin-3-ylpropanoyl)amino]-1,3-benzothiazol-6-yl 2,6-dichlorobenzenesulfonate], for which the melting point is 240 °C.

`O=C(CCN1CCOCC1)Nc1nc2ccc(OS(=O)(=O)c3c(Cl)cccc3Cl)cc2s1` (as salt: benzenesulfonate) [Example 44, 2-[(3-Morpholin-4-ylpropanoyl)amino]-1,3-benzothiazol-6-yl 2,6-dichlorobenzenesulfonate] yielded a melting point of 179 °C.

The molecule `O=C(Cc1cccnc1)Nc1nc2ccc(OS(=O)(=O)c3c(Cl)cccc3Cl)cc2s1` (as salt: benzenesulfonate) [Example 45, 2-[(Pyridin-3-ylacetyl)amino]-1,3-benzothiazol-6-yl 2,6-dichlorobenzenesulfonate] returned a melting point of 218 °C.

(Values after patent publication US8110571B2, “Benzimidazole and benzothiazole derivatives, method for preparing same, use thereof as drugs, pharmaceutical compositions and novel use especially as c-MET inhibitors” (Aventis Pharma S.A., priority 2005, dated 2012).)
